Reference: ChEMBL document CHEMBL4732091, “Design, synthesis and biological evaluation of novel thiosemicarbazone-indole derivatives targeting prostate cancer cells” (Eur J Med Chem, 2021)

Key:
MCF7 = assay: Antiproliferative activity against human MCF7 cell line cells assessed as inhibition of cell proliferation measured after 72 hrs by MTT assay; type: functional, cell-based; details: MCF7, 72 h
MGC-803 = assay: Antiproliferative activity against human MGC-803 cell line cells assessed as inhibition of cell proliferation measured after 72 hrs by MTT assay; type: functional, cell-based; details: MGC-803, 72 h
ECa-109 cell line = assay: Antiproliferative activity against human ECa-109 cell line cells assessed as inhibition of cell proliferation measured after 72 hrs by MTT assay; type: functional, cell-based; details: ECa-109, 72 h
DU-145 = assay: Antiproliferative activity against human DU-145 cell line cells assessed as inhibition of cell proliferation measured after 72 hrs by MTT assay; type: functional, cell-based; details: DU-145, 72 h
[1] = Cytotoxicity against human WPMY-1 cell line cells assessed as inhibition of cell proliferation measured after 72 hrs by MTT assay; type: cell-based; details: WPMY-1, 72 h
PC-3 = assay: Antiproliferative activity against human PC-3 cells assessed as inhibition of cell proliferation measured after 72 hrs by MTT assay; type: functional, cell-based; details: PC-3, 72 h

| SMILES | IC50 (MCF7) [µM] | IC50 (MGC-803) [µM] | IC50 (ECa-109 cell line) [µM] | IC50 (DU-145) [µM] | IC50 [1] [µM] | IC50 (PC-3) [µM] |
| --- | --- | --- | --- | --- | --- | --- |
| COc1ccc2[nH]cc(CCNC(=O)c3ccc(NC(=S)N/N=C/c4ccc(C)cn4)cc3)c2c1 | 5.33 | 10.4 | 5.75 | 3.22 | 18.1 | 0.061 |
| Cc1[nH]c2ccccc2c1CCNC(=O)c1ccc(NC(=S)N/N=C/c2ccc(C(=O)O)cn2)cc1 | > 20 | > 20 | 16.6 | 5.66 | 3.22 | 1.6 |
| CN(C(=S)NN=C(c1ccccn1)c1ccccn1)C1CCCCC1 | – | – | – | – | 0.711 | – |
| Cc1ccc(/C=N/NC(=S)NCCc2c[nH]c3ccccc23)nc1 | 9.1 | 5.66 | 4.51 | 3.13 | 2.33 | 0.601 |
| COc1ccc(/C=N/NC(=S)Nc2ccc(C(=O)NCCc3c[nH]c4ccc(OC)cc34)cc2)nc1 | 1.96 | 8.92 | 9.12 | 4.22 | > 20 | 0.093 |
| Cc1[nH]c2ccccc2c1CCNC(=O)c1ccc(NC(=S)N/N=C/c2ccccc2O)cc1 | > 20 | > 20 | 9.5 | 14.5 | 2.87 | 5.32 |
| COc1ccc2[nH]cc(CCNC(=O)c3ccc(NC(=S)N/N=C(\C)c4ccccn4)cc3)c2c1 | 5.38 | 4.02 | 6.48 | 5.88 | 4.51 | 0.947 |
| Cc1ccc(/C=N/NC(=S)Nc2ccc(C(=O)NCCc3c[nH]c4ccc(C)cc34)cc2)nc1 | 4.02 | 3.12 | 1.63 | 1.06 | 10.9 | 0.081 |
| Cc1[nH]c2ccccc2c1CCNC(=O)c1ccc(NC(=S)N/N=C/c2ccccn2)cc1 | 10.3 | 8.64 | 3.46 | 3.63 | 13.1 | 0.091 |
| C/C(=N\Nc1ccc(C(=O)NCCc2c(C)[nH]c3ccccc23)cn1)c1ccccn1 | 0.871 | 4.22 | 0.664 | 2.05 | 0.45 | 0.406 |
| Cc1[nH]c2ccccc2c1CCNC(=O)c1ccc(NC(=S)N/N=C/c2ccc(Br)cn2)cc1 | > 20 | > 20 | 13.9 | 1.9 | 1.78 | 0.322 |
| Cc1ccc(/C=N/NC(=S)Nc2ccc(C(=O)NCCc3c[nH]c4ccc(Cl)cc34)cc2)nc1 | 7.28 | 2.67 | 2.4 | 0.925 | 7.09 | 0.121 |
| Cc1ccc(/C=N/NC(=S)Nc2ccc(C(=O)NCCc3c[nH]c4ccccc34)cc2)nc1 | 7.11 | 7.02 | 3.94 | 1.46 | 12.5 | 0.241 |
| Cc1ccc(/C=N/NC(=S)NC2CCC(C(=O)NCCc3c[nH]c4ccccc34)CC2)nc1 (stereo unspecified) | 8.13 | 4.58 | 14.1 | 2.22 | 1.56 | 2.22 |
| Cc1ccc(/C=N/NC(=S)NCc2ccc(C(=O)NCCc3c[nH]c4ccccc34)cc2)nc1 | 8.62 | 4.85 | 18.5 | 1.2 | 1.09 | 1.42 |
| Cc1[nH]c2ccccc2c1CCNC(=O)c1ccc(C(=O)NO)cc1 | > 20 | > 20 | > 20 | > 20 | > 20 | > 20 |
| C/C(=N\NC(=S)Nc1ccc(C(=O)NCCc2c(C)[nH]c3ccccc23)cc1)c1ccccn1 | 6.42 | 6.24 | 6 | 4.02 | 3.55 | 0.707 |
| Cc1ccc(/C=N/NC(=S)Nc2ccc(C(=O)NCCc3c[nH]c4ccccc34)cn2)nc1 | 8.32 | 7.59 | 12.5 | 6.15 | 2.5 | 0.512 |
| Cc1[nH]c2ccccc2c1CCNC(=O)c1ccc(NC(=S)N/N=C/c2ccc(O)cn2)cc1 | > 20 | > 20 | 16.2 | 17 | > 20 | 1.5 |
| COc1ccc2[nH]cc(CCNC(=O)c3ccc(NC(=S)N/N=C/c4ccc(O)cn4)cc3)c2c1 | > 20 | > 20 | > 20 | 15.2 | > 20 | 2.48 |
| Cc1[nH]c2ccccc2c1CCNC(=O)c1ccc(NC(=S)N/N=C/c2ccc(Cl)cn2)cc1 | 10.2 | 11.1 | 14.3 | 5.22 | 1.78 | 0.454 |
| COc1ccc2[nH]cc(CCNC(=O)c3ccc(NC(=S)N/N=C/c4ccccn4)cc3)c2c1 | 6.49 | 5.35 | 5.03 | 4.13 | 12.3 | 0.133 |
| COc1ccc(/C=N/NC(=S)Nc2ccc(C(=O)NCCc3c(C)[nH]c4ccccc34)cc2)nc1 | 6.28 | 6.33 | 5.49 | 4.08 | > 20 | 0.084 |
| Cc1[nH]c2ccccc2c1CCNC(=O)c1ccc(NC(=S)N/N=C2/C(=O)Nc3ccccc32)cc1 | > 20 | > 20 | > 20 | 18.5 | > 20 | 17 |
| NC(=S)N/N=C/c1ncccc1N [TRIAPINE] | – | – | – | – | 4.96 | – |
| Cc1ncc(CO)c(/C=N/NC(=O)c2ccc(C(=O)NCCc3c(C)[nH]c4ccccc34)cc2)c1O | > 20 | > 20 | > 20 | > 20 | > 20 | > 20 |
